Common to all, as to assay: inhibition of tumour cell growth, NCI panel, 48 h
The test system of test [1] is CCRF-CEM leukemia.
In test [2] the test system is EKVX NSCLC.
Test [3] deals with HCC-2998 colon.
The test system of test [4] is HCT-116 colon.
In test [5] the test system is K-562 leukemia.
For test [6], the system named is NCI-H460 lung.
For test [7], the system named is NCI-H522 lung.
The test system of test [8] is OVCAR-8 ovarian.
Test [9] concerns RPMI-8226 leukemia.
The subject of test [10] is SK-MEL-2 melanoma.
In test [11] the test system is SN12C renal.
In test [12] the test system is U251 CNS.
Test [13] has as its system UO-31 renal.

Molecules are shown by their SMILES.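 A five-concentration, 48-hour dose response in 96-well plates underlies each endpoint, interpolated linearly between surrounding concentrations. GI50: concentration for 50% inhibition of growth. The concentration for full growth arrest is given as TGI.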 Bounds are passed on as bounds.

For the molecule `CCOC(=O)Cn1nnc2ccc(Nc3nc4ccccc4nc3C(=O)OCC)cc21`, the TGI in test [1], in test [2], in test [3], in [4], in test [5] and in [6] was > 100 µM each time. Moreover, the TGI in test [7], in test [8], in test [9], in test [10], in test [11] and in test [12] was > 100 µM each time. In addition, the TGI in test [13] is > 100 µM.
`COc1ccc(C2c3cc4c(cc3OC(N3CCOCC3)C2C)OCO4)cc1OC` (configuration not stated): the TGI in [1] was 62.5 µM; in test [2], > 100 µM; in test [3], > 44.8 µM; in [4] it was 50.8 µM; in [5] it was > 56.5 µM; in [6] it was > 63.8 µM. The TGI is 22.8 µM in test [7]; > 100 µM in test [8]; > 100 µM in test [9]; 61.8 µM in [10]; > 100 µM in test [11]; 29.5 µM in [12]. For the same molecule, in test [13], the TGI was > 100 µM.
As for `O=[N+]([O-])C1=Cc2c(O)ccc(O)c2C2OC=CC12` (configuration not stated), the TGI in test [1] was > 26.8 µM; in [2], 36.8 µM; in [3] it was > 57.8 µM; in test [4], 32.1 µM; in test [5] it was > 100 µM; in test [6], 38.2 µM. The TGI in [7] is 18.1 µM; in test [8] it was > 56.2 µM; in test [9] it was > 100 µM; in [10], 41 µM; in test [11], 35 µM; in test [12] it was 32.6 µM. Further, the TGI in [13] is 29.7 µM.
As to `CCCCOc1ccc(/C=C/C2=[N+](CCO)CCO2)cc1`, the TGI in test [1] is 67.1 µM; in test [2], > 100 µM; in [3] it was 48.3 µM; in [4], > 100 µM; in test [5], 66.5 µM; in [6] it was > 100 µM. In addition, the TGI in test [7] is > 100 µM; in test [8], > 100 µM; in test [9], 74.7 µM; in test [10], > 100 µM; in test [11], > 100 µM; in test [12], > 100 µM. Also, the TGI in test [13] was > 100 µM.
For the molecule `CCN1CC2=C(OC(N)=C(C#N)C2c2ccc(Cl)cc2)/C(=C/c2ccc(Cl)cc2)C1` (configuration not stated), the TGI is > 100 µM in test [1]; > 100 µM in test [2]; > 100 µM in [3]; 54.9 µM in test [4]; > 100 µM in test [5]; > 100 µM in test [6]. The TGI in [7] was > 100 µM; in [8], > 100 µM; in test [9], 85.1 µM; in test [10] it was > 100 µM; in test [12], 47.2 µM; in test [13], > 100 µM.
For `CCO/C(O)=c1/s/c(=C2/SC(=S)N(c3ccc(C)cc3)C2=O)n(-c2ccccc2)c1=N`, the TGI in test [1], in test [2], in test [3], in [4], in [5] and in test [6] was > 100 µM throughout. Moreover, the TGI in test [7], in test [8], in test [9], in test [10], in [11] and in test [12] was > 100 µM throughout. The TGI in test [13] was > 100 µM.
In the case of `CS(=O)(=O)N(CCC#N)c1ccc(/C=C2\N=C(c3ccccc3Cl)OC2=O)cc1`, the TGI in test [1], in test [2], in test [3], in test [4], in test [5] and in [6] was > 100 µM each time. Also, the TGI in test [7], in [8], in test [9], in test [10], in test [11] and in test [12] was > 100 µM each time. For the same molecule, the TGI in test [13] is > 100 µM.
Take `COC(=O)C12C(=O)CC3CCC1C32C(=O)OC` (configuration not stated): the TGI in test [1], in test [2], in [3], in test [4], in test [5] and in [6] was > 100 µM throughout. The TGI in test [7], in test [8], in test [9], in test [10], in test [11] and in [12] was > 100 µM throughout. In addition, in test [13], the TGI was > 100 µM.
For the molecule `Cc1c2ccccc2c(/C=N/NC(=O)CSCC(=O)N/N=C/c2c3ccccc3c(C)c3ccccc23)c2ccccc12`, the TGI in test [1] was > 72.4 µM; in test [2], > 100 µM; in [3], 65.1 µM; in test [4] it was > 100 µM; in test [5] it was > 100 µM; in test [6] it was > 100 µM. Further, the TGI was > 100 µM in test [7]; > 86.4 µM in test [8]; 51.9 µM in test [9]; > 100 µM in [10]; > 100 µM in [11]; > 57.6 µM in test [12]. Also, the TGI in test [13] is > 100 µM. In test [7], the GI50 is > 100 µM.
Consider `CCCCOC(=O)Nc1ccc(S(=O)(=O)Nc2c(Cl)cccc2Cl)cc1`, for which the TGI is > 100 µM in test [1]; 71.6 µM in test [2]; 43.4 µM in test [3]; 57.5 µM in [4]; 47.8 µM in [5]; > 100 µM in [6]. Also, the TGI is > 100 µM in [7]; 64.6 µM in test [8]; 41.5 µM in test [9]; 66.8 µM in [10]; > 100 µM in test [11]; > 100 µM in [12]. The TGI in test [13] came out at 61.5 µM.
As for `O=C1CC(Nc2ccccc2)c2c(Cl)sc(Cl)c21` (configuration not stated), the TGI was 0.442 µM in test [1]; 3.4 µM in test [2]; 3.39 µM in test [3]; 2.5 µM in [4]; > 100 µM in test [5]; 24.6 µM in test [6]. Besides, the TGI in [7] was found to be 0.315 µM; in test [9], 0.0461 µM; in test [10] it was 4.37 µM; in [11] it was 2.66 µM; in [12], 3.32 µM; in [13], 2.57 µM.

The record behind these values is PubChem BioAssay (NCI).
